Measured values reported in patent publication US8765695B2, “Use of ginsenoside RG1, its metabolites ginsenoside RH1 and/or PPT” (priority 2007, dated 2014).
Marks after values point to notes of the source that are not given here.

Columns and labels:
[1] = test system: male mice; test: Test of sexual ethology: bestriding time and mating frequency of male mice with estral female mice; format: in vivo, Kunming mice
Protocol: Kunming male mice (age 10 weeks, weight body 32-36 g), Kunming female mice (age 10 weeks, weight body 30-34 g), as purchased from Laboratory Animal Center of Chinese Academy of Medical Sciences (with the number of certificate SCXK (Jing) 2005-0004), were placed in a clean grade animal house alternately in light and in darkness (12 h:12 h), while taking water and food freely. The test started after the mice had adapted to the environment in the animal house for 5 days. During the period of adapting to the environment, male mice and female mice were isolated from each other.
In order to correctly reflect the change of male mice in sexual function, we prepared estral female mice by ectomizing their ovaries and inducing them by application of external hormone. After anesthetized with chloral hydrate, female mice were subjected to the steps of ectomizing bilateral ovaries by dorsal approach, ligating uterine tube residue end, and suturing skin, followed by recuperating for one week. The induction by application of hormone was conducted by reference to the literature (Masayoshi Nomura, et al, Physiology & Behavior 91 (2007) 223-228), comprising the steps of subcutaneously injecting estradiol benzoate (30 μg per mouse, is) at 48 h prior to use, and subcutaneously injecting progesterone (500 μg per mouse, is) at 4 h prior to use, to thereby obtain estral female mice.
Estral female mice were put in a ratio of 2:1 to male mice inside a mating box in which male mice were placed. They were trained for consecutive 5 days, 12 min each day. When the mating reaction of male mice became stable, the mice were grouped with the consideration that the bestriding time in each group of mice was substantially the same, while discarding the mice that had relatively weak reaction and no reaction.
In darkness, ethological test was carried out in the rearing cage of male mice. Estral female mice and male mice were kept in a ratio of 2:1 inside the same box for 12 min, during which period the bestriding time and mating frequency of the male mice were observed.
All of the values were expressed by using mean value and standard error (M±SEM), the analytic method used was one-way analysis of variance (ANOVA), and the statistic results were expressed by double star method, i.e., *<0.05, **<0.01.

[2] = test system: sperms in tail of epididymis; test: Gossypol aspermatogenesis model: quality of sperms from tail of epididymis by CASA; format: in vivo,  male mice; conditions: 14th day
[3] = target: PDE5 (Homo sapiens, UniProt O76074); test: Inhibition effect on PDE5 (cGMP degradation, radioimmune autograph technique); format: biochemical; conditions: read-out: Inhibition rate on PDE5
[4] = 5 mg/kg, 1st day, 12 min observation
[5] = 10 mg/kg, 1st day, 12 min observation
[6] = 5 mg/kg every day + gossypol 50 mg/kg every other day
[7] = 10 mg/kg every day + gossypol 50 mg/kg every other day

CC(C)=CCC[C@](C)(O)[C@H]1CC[C@]2(C)[C@@H]1[C@H](O)C[C@@H]1[C@@]3(C)CC[C@H](O)C(C)(C)[C@@H]3[C@@H](O)C[C@]12C [Ppt]
bestriding time of mice ([1]; 5 mg/kg, 1st day): 3.3 ± 2.3 min | mating frequency of mice [1, 4]: 11.4 ± 6.8 | bestriding time of mice ([1]; 5 mg/kg, 4th day): 3.9 ± 4.2 min | mating frequency of mice ([1]; 5 mg/kg, 4th day): 15.4 ± 8.2 | bestriding time of mice ([1]; 5 mg/kg, 8th day): 4.5 ± 3.8 min | mating frequency of mice ([1]; 5 mg/kg, 8th day): 27.4 ± 8.7 | bestriding time of mice ([1]; 5 mg/kg, 12th day): 6.8 ± 3.3 min | mating frequency of mice ([1]; 5 mg/kg, 12th day): 28.2 ± 9.3 | bestriding time of mice ([1]; 5 mg/kg, 14th day): 7.9 ± 4.4 min | mating frequency of mice ([1]; 5 mg/kg, 14th day): 29.5 ± 7.7 | bestriding time of mice ([1]; 5 mg/kg, 16th day): 8.3 ± 3.1* min | mating frequency of mice ([1]; 5 mg/kg, 16th day): 33.5 ± 10.4 | bestriding time of mice ([1]; 5 mg/kg, 18th day): 9.2 ± 3.8* min | mating frequency of mice ([1]; 5 mg/kg, 18th day): 39.2 ± 8.6* | bestriding time of mice ([1]; 5 mg/kg, 20th day): 9.1 ± 3.5* min | mating frequency of mice ([1]; 5 mg/kg, 20th day): 41.7 ± 7.4* | bestriding time of mice ([1]; 10 mg/kg, 1st day): 2.9 ± 3.4 min | mating frequency of mice [1, 5]: 13.4 ± 6.3 | bestriding time of mice ([1]; 10 mg/kg, 4th day): 3.3 ± 4.1 min | mating frequency of mice ([1]; 10 mg/kg, 4th day): 15.4 ± 8.4 | bestriding time of mice ([1]; 10 mg/kg, 8th day): 5.1 ± 3.8 min | mating frequency of mice ([1]; 10 mg/kg, 8th day): 22.8 ± 9.6 | bestriding time of mice ([1]; 10 mg/kg, 12th day): 7.2 ± 3.3 min | mating frequency of mice ([1]; 10 mg/kg, 12th day): 31.6 ± 8.4 | bestriding time of mice ([1]; 10 mg/kg, 14th day): 8.4 ± 4.2 min | mating frequency of mice ([1]; 10 mg/kg, 14th day): 33.7 ± 8.5 | bestriding time of mice ([1]; 10 mg/kg, 16th day): 9.4 ± 3.9* min | mating frequency of mice ([1]; 10 mg/kg, 16th day): 35.3 ± 9.3 | bestriding time of mice ([1]; 10 mg/kg, 18th day): 9.4 ± 3.9* min | mating frequency of mice ([1]; 10 mg/kg, 18th day): 37.2 ± 8.3* | bestriding time of mice ([1]; 10 mg/kg, 20th day): 9.4 ± 3.1* min | mating frequency of mice ([1]; 10 mg/kg, 20th day): 40.2 ± 7.3* | Number of sperms [2, 6]: 141 ± 18** 10^6 · ml−1 | Motility of sperms (A + B) ([2]; 5 mg/kg every day + gossypol): 38 ± 11 % | Viability rate of sperms ([2]; 5 mg/kg every day + gossypol): 55 ± 9 % | Number of sperms [2, 7]: 178 ± 54** 10^6 · ml−1 | Motility of sperms (A + B) ([2]; 10 mg/kg every day + gossypol): 39 ± 9 % | Viability rate of sperms ([2]; 10 mg/kg every day + gossypol): 56 ± 7 %

CC(C)=CCC[C@](C)(O)[C@H]1CC[C@]2(C)[C@@H]1[C@H](O)C[C@@H]1[C@@]3(C)CC[C@H](O)C(C)(C)[C@@H]3[C@@H](O[C@@H]3O[C@H](CO)[C@@H](O)[C@H](O)[C@H]3O)C[C@]12C [Rh1, ginsenoside Rh1]
bestriding time of mice ([1]; 5 mg/kg, 1st day): 2.8 ± 3.2 min | mating frequency of mice [1, 4]: 11.3 ± 4.9 | bestriding time of mice ([1]; 5 mg/kg, 4th day): 3.5 ± 4.1 min | mating frequency of mice ([1]; 5 mg/kg, 4th day): 13.9 ± 3.3 | bestriding time of mice ([1]; 5 mg/kg, 8th day): 4.1 ± 3.5 min | mating frequency of mice ([1]; 5 mg/kg, 8th day): 23.5 ± 5.7 | bestriding time of mice ([1]; 5 mg/kg, 12th day): 6.2 ± 2.9 min | mating frequency of mice ([1]; 5 mg/kg, 12th day): 29.4 ± 4.8 | bestriding time of mice ([1]; 5 mg/kg, 14th day): 8.6 ± 5.2 min | mating frequency of mice ([1]; 5 mg/kg, 14th day): 33.6 ± 6.1 | bestriding time of mice ([1]; 5 mg/kg, 16th day): 8.7 ± 4.2* min | mating frequency of mice ([1]; 5 mg/kg, 16th day): 32.2 ± 5.3 | bestriding time of mice ([1]; 5 mg/kg, 18th day): 8.9 ± 3.3* min | mating frequency of mice ([1]; 5 mg/kg, 18th day): 39.8 ± 9.3* | bestriding time of mice ([1]; 5 mg/kg, 20th day): 9.2 ± 3.4* min | mating frequency of mice ([1]; 5 mg/kg, 20th day): 38.1 ± 8.5* | bestriding time of mice ([1]; 10 mg/kg, 1st day): 3.6 ± 2.7 min | mating frequency of mice [1, 5]: 9.7 ± 5.6 | bestriding time of mice ([1]; 10 mg/kg, 4th day): 3.9 ± 3.8 min | mating frequency of mice ([1]; 10 mg/kg, 4th day): 14.3 ± 9.5 | bestriding time of mice ([1]; 10 mg/kg, 8th day): 4.0 ± 3.5 min | mating frequency of mice ([1]; 10 mg/kg, 8th day): 25.7 ± 8.6 | bestriding time of mice ([1]; 10 mg/kg, 12th day): 6.3 ± 2.6 min | mating frequency of mice ([1]; 10 mg/kg, 12th day): 28.4 ± 10.5 | bestriding time of mice ([1]; 10 mg/kg, 14th day): 8.4 ± 3.1 min | mating frequency of mice ([1]; 10 mg/kg, 14th day): 32.2 ± 9.3 | bestriding time of mice ([1]; 10 mg/kg, 16th day): 8.9 ± 3.7* min | mating frequency of mice ([1]; 10 mg/kg, 16th day): 34.1 ± 8.2 | bestriding time of mice ([1]; 10 mg/kg, 18th day): 9.1 ± 3.8* min | mating frequency of mice ([1]; 10 mg/kg, 18th day): 36.4 ± 6.7* | bestriding time of mice ([1]; 10 mg/kg, 20th day): 9.3 ± 3.8* min | mating frequency of mice ([1]; 10 mg/kg, 20th day): 43.4 ± 7.3* | Number of sperms [2, 6]: 142 ± 24** 10^6 · ml−1 | Motility of sperms (A + B) ([2]; 5 mg/kg every day + gossypol): 39 ± 8 % | Viability rate of sperms ([2]; 5 mg/kg every day + gossypol): 56 ± 10 % | Number of sperms [2, 7]: 143 ± 16** 10^6 · ml−1 | Motility of sperms (A + B) ([2]; 10 mg/kg every day + gossypol): 39 ± 6 % | Viability rate of sperms ([2]; 10 mg/kg every day + gossypol): 52 ± 5 %

CCCc1nn(C)c2c(=O)[nH]c(-c3cc(S(=O)(=O)N4CCN(C)CC4)ccc3OCC)nc12 [Sildenafil, reference compound]
inhibition at 0.0025 µM [3]: 71.6% | inhibition at 0.005 µM [3]: 14.6% | inhibition at 0.01 µM [3]: 52.6% | inhibition at 0.02 µM [3]: 83.3% | inhibition at 0.04 µM [3]: 100%
